In brackets after ≈: the same amount, converted by molar mass. Activity calls are given as the source filed them. The rule behind the calls is not given here.
Tests used:
[1] = test system: HCT-116; test: Antitumor activity against human HCT-116 cells xenografted in nude BALB/c mouse assessed as tumor growth inhibition at 0.2 mg/kg, ip dosed once the other day for 24 days; format: functional; details: HCT-116, ip, 576 h, time 24 day, read-out: TGI
[2] = Oral bioavailability in nude BALB/c mouse serum at 8.0 mg/kg incubated up to 9 hrs, via gavage by LC-MS/MS analysis; format: ADME, organism-based
[3] = test system: HCT-116; test: Antitumor activity against human HCT-116 cells xenografted in nude BALB/c mouse assessed as tumor growth inhibition at 2 mg/kg, po dosed once the other day for 12 times upto 24 days; format: functional; details: HCT-116, po, 576 h, time day <=24, read-out: TGI
[4] = Toxicity in NPG mouse xenografted with human Raji cells assessed as body weight loss at 8 mg/kg, ig measured on the 1 day; format: organism-based; details: in vivo, po, 24 h
[5] = Toxicity in nude BALB/c mouse xenografted with human HCT-116 cells assessed as reduction in body weight at 8 mg/kg, po dosed once the every 2 day for upto 24 days; format: organism-based; details: in vivo, time <=24 day
[6] = Half life in nude BALB/c mouse serum at 8.0 mg/kg incubated up to 9 hrs, iv administered […] by LC-MS/MS analysis; format: ADME, organism-based
[7] = test system: Raji; test: Antitumor activity against NPG mouse xenografted with human Raji cell assessed as tumor growth inhibition at 4 mg/kg, ip measured after 5 day; format: functional; details: 120 h, read-out: TGI
[8] = test system: HCT-116; test: Induction of apoptosis in human HCT-116 cells assessed as early apoptotic cells level at 1 uM incubated for 24 hrs by Annexin V-FITC/PI staining based flow cytometry (reference value: 0.17%); format: functional
[9] = Toxicity in NPG mouse xenografted with human Raji cells assessed as body weight loss at 4 mg/kg, ig measured on the 1 day; format: organism-based; details: in vivo, po, 24 h
[10] = Tmax in nude BALB/c mouse serum at 8.0 mg/kg incubated up to 9 hrs, iv administered […] by LC-MS/MS analysis; format: ADME, organism-based
[11] = test system: Raji; test: Antitumor activity against NPG mouse xenografted with human Raji cell assessed as decrease in tumor volume at 2 mg/kg, ip measured on the 1 day; format: functional
[12] = Toxicity in Kunming mouse assessed as mortality at 300 mg/kg ip measured once every 30 mins upto 10 days; format: organism-based; details: in vivo, 0.5 h
[13] = target: T1, DNA topoisomerase 1 (Homo sapiens) (UniProt P11387); test: Inhibition of human recombinant topoisomerase I using DNA pBR322 as substrate assessed as relaxed DNA at 10 uM incubated for 30 mins by gel electrophoresis analysis relative to control
T1 sequence (whole entry): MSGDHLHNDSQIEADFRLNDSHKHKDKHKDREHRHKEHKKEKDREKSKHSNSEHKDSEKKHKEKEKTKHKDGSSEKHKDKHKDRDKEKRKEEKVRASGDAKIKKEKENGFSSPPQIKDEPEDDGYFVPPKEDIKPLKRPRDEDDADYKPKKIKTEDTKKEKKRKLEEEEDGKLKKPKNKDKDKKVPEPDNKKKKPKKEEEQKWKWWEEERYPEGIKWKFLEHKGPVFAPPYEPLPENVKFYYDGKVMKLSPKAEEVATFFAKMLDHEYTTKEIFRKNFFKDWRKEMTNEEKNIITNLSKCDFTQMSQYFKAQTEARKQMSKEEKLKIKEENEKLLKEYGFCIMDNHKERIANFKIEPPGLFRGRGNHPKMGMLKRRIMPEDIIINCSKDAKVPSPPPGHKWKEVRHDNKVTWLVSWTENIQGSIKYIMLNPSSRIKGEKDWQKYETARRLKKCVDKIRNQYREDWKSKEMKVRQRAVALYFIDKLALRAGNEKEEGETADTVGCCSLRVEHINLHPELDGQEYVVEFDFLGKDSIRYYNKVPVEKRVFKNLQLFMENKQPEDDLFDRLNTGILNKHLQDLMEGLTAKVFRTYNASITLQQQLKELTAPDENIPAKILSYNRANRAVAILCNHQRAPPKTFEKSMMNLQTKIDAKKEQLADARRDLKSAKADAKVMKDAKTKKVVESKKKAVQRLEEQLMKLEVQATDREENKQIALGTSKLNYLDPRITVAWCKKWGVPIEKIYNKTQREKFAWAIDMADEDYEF

[14] = Tmax in nude BALB/c mouse serum at 8.0 mg/kg incubated up to 9 hrs, po administered via gavage by LC-MS/MS analysis; format: ADME, organism-based
[15] = test system: Raji; test: Antitumor activity against NPG mouse xenografted with human Raji cell assessed as decrease in tumor volume at 4 mg/kg, ip measured after 5 day; format: functional
[16] = Toxicity in NPG mouse xenografted with human Raji cells assessed as body weight loss at 8 mg/kg, ig measured after 5 day; format: organism-based; details: in vivo, po, 120 h
[17] = Toxicity in NPG mouse xenografted with human Raji cells assessed as body weight loss at 2 mg/kg, ip measured after 5 day; format: organism-based; details: in vivo, 120 h
[18] = Toxicity in Kunming mouse assessed as mortality at 250 mg/kg, po measured once every 30 mins upto 10 days; format: organism-based; details: in vivo, 0.5 h
[19] = Toxicity in NPG mouse xenografted with human Raji cells assessed as body weight loss at 4 mg/kg, ig measured after 5 day; format: organism-based; details: in vivo, po, 120 h
[20] = Toxicity in Kunming mouse assessed as mortality at 60 mg/kg, iv measured once every 30 mins upto 10 days; format: organism-based; details: in vivo, 0.5 h
[21] = test system: HCT-116; test: Inhibition of colony formation in human HCT-116 cells incubated for 12 days by crystal violet dye based assay; format: functional, cell-based; details: dose 0.001-1 nM, time 12.0 day
[22] = test system: HCT-116; test: Induction of apoptosis in human HCT-116 cells assessed as early apoptotic cells level at 0.001 uM incubated for 24 hrs by Annexin V-FITC/PI staining based flow cytometry (reference value: 0.17%); format: functional
[23] = test system: HCT-116; test: Induction of apoptosis in human HCT-116 cells assessed as early apoptotic cells level at 0.03 uM incubated for 24 hrs by Annexin V-FITC/PI staining based flow cytometry (reference value: 0.17%); format: functional
[24] = AUC (0 to infinity) in nude BALB/c mouse serum at 8.0 mg/kg incubated up to 9 hrs, po administered via gavage by LC-MS/MS analysis; format: ADME, organism-based; parameters: route oral, dose 8 mg/kg, time <=9; details: in vivo
[25] = test system: HCT-116; test: Induction of apoptosis in human HCT-116 cells assessed as late apoptotic cells level at 0.03 uM incubated for 24 hrs by Annexin V-FITC/PI staining based flow cytometry (reference value: 0.07%); format: functional
[26] = test system: HCT-116; test: Antitumor activity against human HCT-116 cells xenografted in nude BALB/c mouse assessed as tumor growth inhibition at 0.5 mg/kg, ip dosed once the other day for 24 days; format: functional; details: HCT-116, ip, 576 h, time 24 day, read-out: TGI
[27] = test system: HeLa; test: Cytotoxicity against human Hela assessed as reduction in cell viability measured after 72 hrs by MTT assay; format: functional, cell-based
[28] = Toxicity in NPG mouse xenografted with human Raji cells assessed as body weight loss at 4 mg/kg, ip measured on the day 1; format: organism-based; details: in vivo
[29] = Solubility of compound in phosphate buffer at pH 7.4 incubated for 24 hrs under shaking condition by HPLC analysis; format: physicochemical
[30] = test system: HCT-116; test: Cytotoxicity against human HCT-116 assessed as reduction in cell viability measured after 72 hrs by MTT assay; format: functional, cell-based; details: HCT-116, 72 h

CCc1c2c(nc3ccc(OCC(=O)N4CCCCC4)cc13)-c1cc3c(c(=O)n1C2)COC(=O)[C@]3(O)CC
inhibition in vivo at 0.2 mg/kg [1]: 71.8%
bioavailability [2]: 22.4%
inhibition in vivo at 2 mg/kg [3]: 79.6%
Activity [4]: 24.6 g
Activity [5]: Toxic
half-life [6]: 61.8 min
inhibition in vivo at 4 mg/kg [7]: 136%
Activity [8]: 16.95%
Activity [9]: 25.4 g
Tmax [10]: 10.2 min
Activity [11]: 983 mm3
Activity [12]: Non-Toxic
inhibition [13]: 52.3%
Tmax [14]: 19.8 min
Activity [15]: 729 mm3
Activity [16]: 22.5 g
Activity [17]: 20.6 g
Activity [18]: Non-Toxic
Activity [19]: 25.8 g
Activity [20]: Non-Toxic
inhibition [21]: Active
Activity [22]: 4.92%
Activity [23]: 7.55%
AUC [24]: 168.07 h/ng/mL
Activity [25]: 10.73%
inhibition in vivo at 0.5 mg/kg [26]: 92%
IC50 [27]: 125 nM
Activity [28]: 24.8 g
solubility thermodynamic at 24 h [29]: 19.9 µg/mL (≈ 38.4 µM)
IC50 [30]: 3 nM

— ChEMBL document CHEMBL4706505, “F10, a new camptothecin derivative, was identified as a new orally-bioavailable, potent antitumor agent” (Eur J Med Chem, 2020)
